Measurements as given in patent EP4772500A1, “NOVEL ISOXAZOLE COMPOUND AS TM4SF5-SPECIFIC INHIBITOR AND USE THEREOF” (Seoul National University R&DB Foundation, priority 2023, dated 2025).

How the values were obtained:
TM4SF5 and SLAMF7 = biological target: T1, TM4SF5 and SLAMF7 (Homo sapiens, UniProt O14894); experiment: Streptavidin pulldown: binding between TM4SF5 and SLAMF7; format: cell-based
T1 construct: expressed in transfected cells; host or cells: SNU761 human hepatocellular carcinoma cells
T1 sequence (O14894 1-197): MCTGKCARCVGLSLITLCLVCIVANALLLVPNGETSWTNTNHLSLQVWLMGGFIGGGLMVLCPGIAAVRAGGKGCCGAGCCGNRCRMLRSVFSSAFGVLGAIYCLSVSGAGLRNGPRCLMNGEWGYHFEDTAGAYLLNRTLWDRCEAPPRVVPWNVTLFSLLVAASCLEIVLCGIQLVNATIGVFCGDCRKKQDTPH
Protocol: Cells were cultured to ~60% density in a cell incubator at 37°C and 5% CO2, and then transfected using PEI and cultured in a cell incubator at 37°C for two days. After cultivation, cell extracts were obtained by the method described above. After precipitating a desired protein from the cell extracts using an immunoprecipitation method, the binding proteins were identified by the Western blot technique described above. Specifically, cells cultured in a 100 mm cell culture dish for two days were washed twice with PBS, and protease inhibitor cocktails (GenDepot, USA) were added to 500 µl of immunoprecipitation lysis buffer (0.5% Triton X-100 or Brij 58, 40 mM HEPES, 150 mM NaCl, 1 mM EDTA, pH 7.4), followed by treatment at 4°C for 15 minutes. After collecting the cells, centrifugation was performed at 12,000x g at 4°C for 15 minutes, and the supernatant was transferred to a new microcentrifuge tube to obtain a cell extract. Proteins therein were quantified using a BCA reagent (Thermo Scientifics, USA). An electrophoresis sample was prepared by adding 4x laemmli sample buffer to a portion of the quantified sample and boiling at 100°C for 5 minutes. For immunoprecipitation, Streptavidin Agarose Resin (Thermo Fisher Scientific) or anti-HA antibody-coated Sepharose beads were added in proportion to the quantified protein amount, followed by rotation at 4°C for 4 hours, and then centrifugation was performed at 7,000x g at 4°C for 5 minutes and the supernatant was discarded. […] (f) After treating NK92-EV or NK92-TM4SF5 cells with DMSO or drugs ST-2-001 (1 nM), ST-3-005 (10 nM or 1 µM), ST-5-001, or ST-5-002 (100 nM or 1 µM) for 24 hours, the expression of SLAMF7 expressed on the cell surface was analyzed through immunostaining using flow cytometry. The expression level of SLAMF7 was confirmed by adding a SLAMF7 antibody to bind with SLAMF7 and then measuring the fluorescence linked to the SLAMF7 antibody using flow cytometry. […]

PD-L1 = biological target: T2, PD-L1 (Homo sapiens, UniProt Q9NZQ7); experiment: Cholesterol binding to PD-L1; details: summary statement, cholesterol binding to TM4SF5 and PD-L1
T2 construct: expressed in transfected cells; host or cells: Huh7 cells, transfected; captured on streptavidin agarose
Protocol: (a) Expression vectors for a control vector, TM4SF1, TM4SF5 WT, and R113Q, C118/145A, H127A, and N138A mutants of TM4SF5 were injected into the HEK293FT cell line, which was confirmed not to express TM4SF5, and allowed to express for 48 hours. (b) Huh7KO cell lines, in which TM4SF5 was knocked out in Huh7, were stably infected with a retrovirus encoding pBabe-EV or pBabe-TM4SF5-HA. […] (d) Strep-EV, Strep-PD-L1 WT, and 3NQ (N192/200/219Q) and 4NQ (N35/192/200/219Q) N-glycosylation mutants were injected into Huh7 cells to be expressed. (e) Strep-EV and Strep-TM4SF5 expression vectors were injected into Huh7KO cells and allowed to express for 48 hours. (a-e) After obtaining cell extracts, TM4SF5-strep, TM4SF5-HA, or PD-L1-strep was pulled down with streptavidin agarose resin or anti-HA antibody from extracts containing 0.2, 0.25, or 1.0 mg of protein for each experimental condition. […] Alternatively, they were treated with 1,2-^3H-Cholesterol (50 µM) alone or together with ST-3-001 (negative control compound), ST-5-001, or ST-5-002 (2.5 µM each) for 1 hour (c-e). For the experimental samples of each condition, radioactive isotope values were repeatedly measured using a TriCarb scintillation counter (PerkinElmer, Waltham, MA).

TM4SF5 = biological target: T3, TM4SF5 (Homo sapiens, UniProt O14894); experiment: TM4SF5 expression-dependent cell line models (summary statement); format: cell-based; set-up: expressed in transfected cells; captured on streptavidin agarose
T3 sequence (O14894 1-197): T1 sequence (O14894 1-197)
Description: In addition, the isoxazole compounds are capable of reversing both (i) an increase in PD-L1 expression and stabilization through direct binding mediated by TM4SF5 and (ii) induction of PD-1 expression in T cells, which suppresses T-cell activation and cancer cell killing functions.

[1] = SNU761 expressing TM4SF5-Strep and FLAG-SLAMF7, 24 hours, brij58 lysis (FIG. 15e-f)

T2 sequence (Q9NZQ7 19-290): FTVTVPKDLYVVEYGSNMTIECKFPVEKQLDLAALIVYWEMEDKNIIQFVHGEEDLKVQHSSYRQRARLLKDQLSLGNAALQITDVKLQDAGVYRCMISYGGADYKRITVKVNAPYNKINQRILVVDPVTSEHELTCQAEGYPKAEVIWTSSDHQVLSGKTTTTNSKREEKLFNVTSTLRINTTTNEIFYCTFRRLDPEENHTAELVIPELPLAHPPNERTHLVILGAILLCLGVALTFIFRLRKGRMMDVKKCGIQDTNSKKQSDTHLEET

Compound | binding between TM4SF5 and SLAMF7 (TM4SF5 and SLAMF7; [1]) | binding of cholesterol to PD-L1 (PD-L1) | concentrations at which effects were exhibited (TM4SF5) | binding between TM4SF5 and SLAMF7 (TM4SF5 and SLAMF7; 2.5 µM, 24 hours, SNU761 (FIG. 13j))
Cc1ccc(C(=O)Nc2ccc(-c3cc(-c4ccc(O)cc4)no3)cc2)cc1 [ST-5-002, N-(4-(3-(4-hydroxyphenyl)isoxazole-5-yl)phenyl)-4-methylbenzamide] | decreased | inhibit | ≤ 1 µM | 
CC(=O)Nc1ccc(-c2cc(-c3ccc(O)cc3)no2)cc1 [ST-5-001, N-(4-(3-(4-hydroxyphenyl)isoxazole-5-yl)phenyl)acetamide] |  | inhibit | ≤ 1 µM | inhibited
COc1cccc(-c2cc(-c3ccc(NC(C)=O)cc3)no2)c1 [ST-3-001, N-(4-(5-(3-methoxyphenyl)isoxazole-3-yl)phenyl)acetamide] | did not decrease but rather showed an increasing trend |  |  | 
